Broadly, the inhibition in vivo is the drop in the measured response relative to a control, in per cent. By pIC50 is commonly meant −log10 of the IC50, conventionally taken in molar units. A lower pIC50 goes with a high IC50. As a reminder, the Kb is the affinity of an antagonist, worked out from how it opposes an agonist. The low end stands for a more potent antagonist, the high end for a less potent antagonist.

pIC50: −log10 of the molar value. Where only a bound is given, the exact number is not on record here.

The text below walks through data of patent US20040102423A1, “Spironolactone and angiotensin II antagonist combination therapy for treatment of congestive heart failure” (G.D. Searle & Co., priority 1995, published 2004).

The subject of one test is pressor response to AII. Description: Assay C: In vivo intragastric pressor assay response for AII antagonists. Also noted: species or system Sprague-Dawley rats. The conditions noted are these: in vivo pressor response.
Test [1] concerns the target angiotensin II AT1 receptor. Kind of test: Assay A: Angiotensin II binding activity, rat uterine membrane preparation, 125I-AII displacement.
The test system of the next test is rabbit aortic rings. Kind of test: Assay B: In vitro vascular smooth muscle response for AII (antagonist activity, pA2). Format: cell-based. The settings on record: for Kb: Oryctolagus cuniculus, two values in a cell = two determinations. On the procedure:
Assay B: In Vitro Vascular Smooth Muscle-Response for AII
The compounds of the invention were tested for antagonist activity in rabbit aortic rings. Male New Zealand white rabbits (2-2.5 kg) were sacrificed using an overdose of pentobarbital and exsanguinated via the carotid arteries. The thoracic aorta was removed, cleaned of adherent fat and connective tissue and then cut into 3-mm ring segments. The endothelium was removed from the rings by gently sliding a rolled-up piece of filter paper into the vessel lumen. The rings were then mounted in a water-jacketed tissue bath, maintained at 37° C., between moveable and fixed ends of a stainless steel wire with the moveable end attached to an FT03 Grass transducer coupled to a Model 7D Grass Polygraph for recording isometric force responses. The bath was filled with 20 ml of oxygenated (95% oxygen/5% carbon dioxide) Krebs solution of the following composition (mM): 130 NaCl, 15 NaHCO3, […], 1.2 NaH2PO4, 1.2 MgSO4, 2.5 CaCl2, and 11.4 glucose. The preparations were equilibrated for one hour before approximately one gram of passive tension was placed on the rings. Angiotensin II concentration-response curves were then recorded (3×10^−10 to 1×10^−5 M). Each concentration of AII was allowed to elicit its maximal contraction, and then AII was washed out repeatedly for 30 minutes before rechallenging with a higher concentration of AII. Aorta rings were exposed to the test antagonist at 10^−5 M for 5 minutes before challenging with AII. Adjacent segments of the same aorta ring were used for all concentration-response curves in the presence or absence of the test antagonist. The effectiveness of the test compound was expressed in terms of pA2 values and were calculated according to H. O. Schild [Br. J. Pharmacol. Chemother., 2, 189-206 (1947)]. The pA2 value is […] which increases the EC50 value for AII by a factor of two. Each test antagonist was evaluated in aorta rings from two rabbits.

Setting [2] is: Rattus norvegicus, po, 3 mg/kg intragastrically.

With `CCCn1nc(C(C)(F)F)nc1Cc1ccc(-c2ccccc2-c2nnn[nH]2)nc1` [Compound 176], in the test with pressor response to AII (setting [2]), the inhibition in vivo at 3 mg/kg amounted to 10%. Further, the “Assay C Duration” value with pressor response to AII (3 mg/kg intragastrically) worked out at 150 min. Moreover, in test [1], the negative logarithm of the IC50 (pIC50) was 8.01. In the test with rabbit aortic rings, this compound had a Kb of 20.4 nM.
For `CCCCn1nc(-c2ccccc2Cl)nc1Cc1ccc(-c2ccccc2-c2nnn[nH]2)nc1` [Compound 169] the same measures were 15%, 180 min, 6.82 and 16.6 nM.
In the same order, the values of `CCCCn1cc(CC(C)C)n(Cc2ccc(-c3ccccc3-c3nnn[nH]3)nc2)c1=O` [Compound 199] are 60%, greater than 180 min, 8.00 and 1.62 nM.
`CCCCc1cn(C2CCCCC2)c(=O)n1Cc1ccc(-c2ccccc2-c2nnn[nH]2)cc1` [Compound 147] gave an inhibition in vivo at 3 mg/kg in the test with pressor response to AII (Rattus norvegicus, intraduodenal, 3 mg/kg intraduodenally) of 74%. Moreover, the “Assay C Duration” value in the test on pressor response to AII (3 mg/kg intraduodenally) was in the range of 5 to 10 min. Also, in test [1], the pIC50 is 8.24. Also, the Kb in the test on rabbit aortic rings is 2510 nM.
With `CCCCc1nn(C(C)(C)C(=O)c2ccccc2)c(=O)n1Cc1ccc(-c2ccccc2-c2nn[nH]n2)cc1` [Compound 113], in the test on pressor response to AII (Rattus norvegicus, po, 10 mg/kg intragastrically), the inhibition in vivo at 10 mg/kg was 60%. The “Assay C Duration” value with pressor response to AII (10 mg/kg intragastrically) came to 180 min. In test [1], this compound gave a pIC50 of 7.92. Also, the Kb with rabbit aortic rings is 3.98 nM.
As for `CCCCc1cn(CC)c(=O)n1Cc1ccc(-c2ccccc2-c2nnn[nH]2)nc1` [Compound 206], at 3 mg/kg the inhibition in vivo with pressor response to AII (setting [2]) was 30%. In the test with pressor response to AII (3 mg/kg intragastrically), the “Assay C Duration” value is greater than 180 min. Also, in test [1], the pIC50 was 8.27. Moreover, in the test on rabbit aortic rings, the Kb was 1.78 nM.
As to `CCCCc1nc(CC(CC)CC)nn1Cc1ccc(-c2ccccc2-c2nnn[nH]2)nc1` [Compound 262], in test [1], the negative-log IC50 (pIC50) was 6.28. Besides, the Kb with rabbit aortic rings is 603 nM.
In the same order, the values of `CCCCc1nc(CN)n(Cc2ccc(-c3ccccc3-c3nnn[nH]3)cc2)n1` [Compound 47] are 7.68 and 14.1 nM.
As for `CCCCc1nc(C(F)(F)CCC)nn1Cc1ccc(-c2ccccc2-c2nnn[nH]2)nc1` [Compound 258], the pIC50 in test [1] was 6.46. In the test with rabbit aortic rings, this compound gave an antagonist equilibrium constant (Kb) of 145 nM.
`CCCc1cn(CCC)c(=O)n1Cc1ccc(-c2ccccc2-c2nnn[nH]2)cc1` [Compound 149]: the pIC50 in test [1] is 8.96. Also, the Kb in the test on rabbit aortic rings was 794 nM.
In the same order, the values of `CCCCc1nc(-c2ccccc2OC)n(Cc2ccc(-c3ccccc3-c3nnn[nH]3)nc2)n1` [Compound 277] are 6.72 and 288 nM.
For `CCCCc1nc(CCCC)n(Cc2ccc(-c3ccccc3C(=O)O)cc2)n1` [Compound 13] the same measures were 7.77 and 2 nM.
`CCCCc1nn(CC(=O)c2cc(OC)ccc2OC)c(=O)n1Cc1ccc(-c2ccccc2-c2nn[nH]n2)cc1` [Compound 107] showed a pIC50 in test [1] of 6.74. For the same compound, in the test with rabbit aortic rings, the Kb was 5.01 nM.
In the same order, the values of `CCCCc1nn(CC(=O)C23CC4CC(CC(C4)C2)C3)c(=O)n1Cc1ccc(-c2ccccc2-c2nn[nH]n2)cc1` [Compound 91] are 7.52 and 2.51 nM.
For `CCCCc1cn(CCc2cccs2)c(=O)n1Cc1ccc(-c2ccccc2-c2nnn[nH]2)cc1` [Compound 145] the same measures were 9.32 and 200 nM.
In the same order, the values of `CCCCc1nc(Cc2ccc(-c3ccccc3-c3nnn[nH]3)cc2)nn1CCCC` [Compound 140] are 10.51 and 7.94 nM.
With `CCCCc1nc(CC)nn1Cc1ccc(-c2ccccc2-c2nnn[nH]2)cc1` [Compound 50], the pIC50 in test [1] is 7.27. The same compound had a Kb in the test with rabbit aortic rings of 19.5 nM.
In turn, `CCCCc1nc(CNC(=O)OC(C)(C)C)nn1Cc1ccc(-c2ccccc2-c2nnn[nH]2)cc1` [Compound 46] gave a negative-log IC50 (pIC50) in test [1] of 6.96. The Kb in the test on rabbit aortic rings was 158 nM.
For `CCCCc1nc(Cl)nn1Cc1ccc(-c2ccccc2-c2nnn[nH]2)cc1` [Compound 18] the same measures were 6.01 and 724 nM.
In the case of `CCCCc1nn(CC(=O)OC(C)(C)C)c(=O)n1Cc1ccc(-c2ccccc2-c2nn[nH]n2)cc1` [Compound 95], the pIC50 in test [1] was 7.18. This compound also gave a Kb in the test on rabbit aortic rings of 6.31 nM.
`CCCn1nc(C(F)(F)CC)nc1Cc1ccc(-c2ccccc2-c2nnn[nH]2)nc1` [Compound 178] showed a pIC50 in test [1] of 7.06. In the test with rabbit aortic rings, this compound gave an antagonist equilibrium constant (Kb) of 28.8 nM.
`CCCCc1nc(CF)n(Cc2ccc(-c3ccccc3-c3nnn[nH]3)cc2)n1` [Compound 71]: in test [1], the pIC50 was 4.92. In addition, in the test with rabbit aortic rings, the “Assay B pA2 (result given as symbol)” value was “* (Antagonist Activity not observed up to 10 μM of test compound.)”.
`CCCCCc1nc(Cc2ccc(-c3ccccc3-c3nnn[nH]3)nc2)n(CCCC)n1` [Compound 167] showed a pIC50 in test [1] of 6.43. In the test with rabbit aortic rings, this compound showed a Kb of 83.2 nM.
`CCCCc1nc(CNC(=O)CCC(NC(C)=O)C(=O)OC(C)(C)C)nn1Cc1ccc(-c2ccccc2-c2nnn[nH]2)cc1` (stereo not drawn) [Compound 52] showed a pIC50 in test [1] of 7.00. In addition, in the test on rabbit aortic rings, the Kb is 7.24 nM.
For `CCCCc1cn(-c2c(C)cc(C(C)(C)C)cc2C)c(=O)n1Cc1ccc(-c2ccccc2-c2nnn[nH]2)nc1` [Compound 244] the same measures were 6.82 and 67.6 nM.
In turn, `CCCCc1nc(C(F)(F)C(F)(F)F)nn1Cc1ccc(-c2ccccc2-c2nnn[nH]2)cc1` [Compound 80] gave a pIC50 in test [1] of 7.60. In the test on rabbit aortic rings, this compound had a Kb of 7.94 nM.
In the same order, the values of `CCCCc1nc(CCCNC(=O)OC(C)(C)C)nn1Cc1ccc(-c2ccccc2-c2nnn[nH]2)cc1` [Compound 79] are 8.31 and 0.631 nM.
In the same order, the values of `CCCCc1nc(CCc2ccccc2)nn1Cc1ccc(-c2ccccc2-c2nnn[nH]2)cc1` [Compound 37] are 6.47 and 126 nM.
In test [1], `CCCCc1nc(CCC)nn1Cc1ccc(-c2ccccc2-c2nnn[nH]2)cc1` [Compound 25] gave a pIC50 of 6.32. This compound showed a Kb in the test with rabbit aortic rings of 158 nM.
For the compound `CCCCc1nc(Cc2ccc(-c3ccccc3C(=O)O)cc2)n(CCCC)n1` [Compound 137], the pIC50 in test [1] is 6.66. The same compound showed a Kb in the test on rabbit aortic rings of 5.01 nM.
In the same order, the values of `CCCCc1nn(CCCC)c(=O)n1Cc1ccc(-c2ccccc2C(=O)O)cc1` [Compound 89] are 7.74 and 12.6 nM.
Take `CCCCc1nc(CCCN)nn1Cc1ccc(-c2ccccc2-c2nnn[nH]2)cc1` [Compound 83]: the pIC50 in test [1] is 8.44. Also, the Kb in the test on rabbit aortic rings was 5.01 nM.
Turning to `CCCCc1nc(C23CC4CC(CC(C4)C2)C3)nn1Cc1ccc(-c2ccccc2-c2nnn[nH]2)cc1` [Compound 67], the pIC50 in test [1] is 5.51. In addition, the Kb in the test with rabbit aortic rings was 1320 nM.
For `CCCCc1nc2c(CCC)nnc(O)c2n1Cc1ccc(-c2ccccc2-c2nnn[nH]2)cc1` [Compound 124], the inhibition in vivo at 3 mg/kg in the test on pressor response to AII (setting [2]) was 45%. For the same compound, the “Assay C Duration” value in the test on pressor response to AII (3 mg/kg intragastrically) was greater than 180 min. Further, in the test on rabbit aortic rings, the Kb was 0.38 nM.
`CCCCc1ncnn1Cc1ccc(-c2ccccc2-c2nnn[nH]2)cc1` [Compound 64] had a pIC50 in test [1] of 7.27. This compound had an antagonist equilibrium constant (Kb) in the test with rabbit aortic rings of 100 nM.
In the same order, the values of `CCCCc1nc(CCCNC(=O)OC(C)(C)C)n(Cc2ccc(-c3ccccc3-c3nnn[nH]3)cc2)n1` [Compound 78] are 7.00 and 100 nM.
For `CCCCc1nc(Cc2ccc(-c3ccccc3-c3nnn[nH]3)cc2)n(CCCC)n1` [Compound 139] the same measures were 9.57 and 501 nM.
`CCCCc1nn(CC(=O)OCC)c(=O)n1Cc1ccc(-c2ccccc2-c2nn[nH]n2)cc1` [Compound 97] showed a pIC50 in test [1] of 6.55. This compound gave a Kb in the test on rabbit aortic rings of 20 nM.
`CCCCc1nc(CC)n(Cc2ccc(-c3ccccc3C(=O)O)cc2)n1` [Compound 87]: the negative logarithm of the IC50 (pIC50) in test [1] is 7.04. The compound further showed a Kb in the test on rabbit aortic rings of 15.8 nM.
For `CCCCn1nc(/C=C/c2cccs2)nc1Cc1ccc(-c2ccccc2-c2nnn[nH]2)nc1` [Compound 165] the same measures were 6.39 and 126 nM.
In the same order, the values of `CCCCc1nc(CCCN)n(Cc2ccc(-c3ccccc3-c3nnn[nH]3)cc2)n1` [Compound 82] are 8.10 and 3.16 nM.
For `CCCCc1nc(C)n(Cc2ccc(-c3ccccc3C(=O)O)cc2)n1` [Compound 88] the same measures were 7.30 and 20 nM.
Regarding `CCCCc1nc(CCc2ccccc2)n(Cc2ccc(-c3ccccc3-c3nnn[nH]3)cc2)n1` [Compound 36], in test [1], the pIC50 is 5.85. Moreover, in the test with rabbit aortic rings, the antagonist equilibrium constant (Kb) was 1200 nM.
